Laboratory results from paper PMC5531494, “Target specificity, in vivo pharmacokinetics, and efficacy of the putative STAT3 inhibitor LY5 in osteosarcoma, Ewing's sarcoma, and rhabdomyosarcoma” (PLoS ONE, 2017).

Experiments:
[1] = target: T1, polo-like kinase 3 (PLK3) (Homo sapiens, UniProt Q9H4B4); assay: KINOMESCAN binding, PLK3; settings: 5 μM LY5
T1 construct: purchased KINOMESCAN (www.kinomescan.com)
Protocol: To determine the specificity of STAT blockade, we asked whether LY5 affected the phosphorylation of other family members including STAT1, STAT2, STAT4, and STAT6 [30–32]. […] To further define any potential off-target effects, we profiled the direct (steric) or indirect (allosteric) binding of LY5 to the binding sites of 96 human protein or lipid kinases (KINOMESCAN, www.kinomescan.com).
Supplementary file pone.0181885.s001.pdf: S1 Fig Kinomescan results for LY5. […] At 5 μM LY5 (B), only interaction with PLK3 was identified, mapped S-score (35) = 0.01. (PDF) Click here for additional data file.

STAT3 [2] = target: T2, STAT3 (Homo sapiens, UniProt P40763); assay: Western blot of basal p-STAT3 (Tyr705) in sarcoma cell lines RH30, EW8, RD; format: cell-based; design: endogenous in cells; settings: ES, OS and RMS cells, RH30, EW8, RD treated 30 minutes
T2 sequence (P40763 whole entry): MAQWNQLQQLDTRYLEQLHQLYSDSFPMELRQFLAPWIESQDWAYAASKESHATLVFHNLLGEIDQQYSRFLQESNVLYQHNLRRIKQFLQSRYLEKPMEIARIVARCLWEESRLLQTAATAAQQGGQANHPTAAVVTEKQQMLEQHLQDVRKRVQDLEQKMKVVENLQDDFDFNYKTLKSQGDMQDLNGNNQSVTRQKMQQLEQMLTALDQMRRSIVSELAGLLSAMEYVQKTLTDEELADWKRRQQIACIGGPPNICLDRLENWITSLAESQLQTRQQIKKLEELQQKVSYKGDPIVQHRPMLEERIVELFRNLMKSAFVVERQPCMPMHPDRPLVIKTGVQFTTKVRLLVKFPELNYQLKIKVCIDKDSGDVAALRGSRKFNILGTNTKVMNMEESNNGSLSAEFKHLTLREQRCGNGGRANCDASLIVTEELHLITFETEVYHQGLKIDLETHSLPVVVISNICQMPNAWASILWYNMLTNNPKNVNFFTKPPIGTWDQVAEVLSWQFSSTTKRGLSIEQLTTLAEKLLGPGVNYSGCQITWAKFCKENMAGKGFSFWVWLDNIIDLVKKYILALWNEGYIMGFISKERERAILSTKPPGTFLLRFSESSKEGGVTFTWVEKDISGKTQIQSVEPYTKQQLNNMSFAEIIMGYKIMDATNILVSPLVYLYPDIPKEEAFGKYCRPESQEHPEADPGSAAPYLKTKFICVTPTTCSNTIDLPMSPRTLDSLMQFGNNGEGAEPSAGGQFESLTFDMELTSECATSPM
Protocol: (§1) Cell lysis, protein isolation and immunoblotting were performed as described previously. Twenty micrograms of protein were resolved using 4–12% Bis-Tris polyacrylamide gels. Gels were transferred to PVDF membranes and subjected to blocking and incubation with primary and secondary antibodies. The primary antibodies used in this study included: phospho-STAT3 (Tyr705, Cell Signaling, Boston, MA and Abcam, Cambridge, MA), total STAT3 (Cell Signaling and Abcam), phospho-STAT1 (Cell Signaling), total STAT1 (Cell Signaling), phospho-STAT2 (Cell Signaling), phospho-STAT4 (Cell Signaling), phospho-STAT6 (Cell Signaling), and GAPDH (Cell Signaling). Protein bands were detected using Western Lightning ® Plus Enhanced Chemiluminescence substrate (Perkin Elmer, Waltham, MA) and HyBlot CL ® Autoradiography film (Denville Scientific, Holliston, MA). The cytokines used in this study included: interferon gamma (IFN-γ, Cell Signaling), interferon alpha (IFN-α, Cell Signaling), interleukin-4 (IL-4, Cell Signaling), interleukin-6 (IL-6, Cell Signaling), and oncostatin M (OSM, Cell Signaling).
(§2) Fig 1 LY5 inhibits pSTAT3 in sarcoma cell lines. (A) The tumor cell lines RH30, EW8, and RD were treated with increasing concentrations of LY5 for 30 minutes. Cell lysates were collected for Western blotting of p-STAT3, total STAT3, and GAPDH. GAPDH was used as loading control. […]

STAT3 [3] = target: T2, STAT3; assay: Western blot of pSTAT3 in MG63.3 cells; format: cell-based; design: endogenous in cells; host or cells: MG63.3
Protocol: Murine K7M2 and human MG63.3 OS cells were treated with increasing concentrations of LY5 for 2 hrs or 7 hrs. Western blotting was performed for pSTAT3 and STAT3 as indicated above to confirm inhibition of STAT3 phosphorylation in the cell lines prior to initiation of the PuMA assay. In addition, a sulforhodamine B colorimetric assay was performed to assess the cytotoxicity of LY5 in K7M2 and MG63.3 cells as previously described.
(§3) MG63.3 and K7M2 cell lines were exposed to increasing concentrations of LY5 to determine the IC50 (A). Western blot analysis was performed to determine the dose and duration of LY5 exposure required to inhibit STAT3 phosphorylation (B-C). Serial imaging of fluorescently labeled MG63.3 and K7M2 cells was performed in ex vivo LY5 treated lung sections (D). Metastatic burden was quantified by evaluation of the percent tumor burden (mean normalized fluorescent area). Data are reported as the mean ± standard deviation. In MG 63.3 experiment, p < 0.0001 Kruskal-Wallis test, p < 0.05 10 μM vs control at days 7, 14, and 21, 10 μM vs 1 μM at days 7, 14, and 21, 50 μM vs control at days 7, 14, and 21, and 50 μM vs 10 μM at days 7, 14, and 21 post-test Dunn. In K7M2 experiment, p < 0.0001 Kruskal-Wallis test, p < 0.05 10 μM vs control at days 14 and 21, 10 μM vs 0.1 μM at days 14 and 21, and 10 μM vs 1 μM at days 14 and 21, post-test Dunn.

K7M2 cells = assay: Ex vivo pulmonary metastasis assay (PuMA); format: cell-based, murine; settings: K7M2, 10 μM LY5 only
Protocol: GFP-positive K7M2 and MG63.3 cells (3 x 10^5 MG63.3; 5 x 10^5 K7M2) were administered via tail vein injection into mice. Following humane euthanasia, the lungs were insufflated with a culture medium/agarose mixture to a constant hydrostatic pressure of 20 cm H2O and prepared for ex vivo culture as previously described. Lung sections were cultured in complete media containing LY5 (0, 0.1, 1, 10 or 50 μM) on sterile Gelfoam using 6 lung sections per treatment condition. Media was changed every 48 hrs and lung slices were imaged with a fluorescent microscope every 7 days for a total of 21 days.
as §3, with “In K7M2 experiment, p < 0.0001 Kruskal-Wallis test, p < 0.05 10 μM vs control at days 14 and 21, 10 μM vs 0.1 μM at days 14 and 21, and 10 μM vs 1 μM at days 14 and 21, post-test Dunn.” left out

STAT2 = target: T3, STAT2 (Homo sapiens, UniProt P52630); assay: Cytokine-induced STAT2 phosphorylation in SJSA cells, Western blot; format: cell-based; settings: induced by IFN-γ, IFN-α, or IL-4
T3 construct: endogenous in cells; host or cells: SJSA
T3 sequence (P52630 whole entry): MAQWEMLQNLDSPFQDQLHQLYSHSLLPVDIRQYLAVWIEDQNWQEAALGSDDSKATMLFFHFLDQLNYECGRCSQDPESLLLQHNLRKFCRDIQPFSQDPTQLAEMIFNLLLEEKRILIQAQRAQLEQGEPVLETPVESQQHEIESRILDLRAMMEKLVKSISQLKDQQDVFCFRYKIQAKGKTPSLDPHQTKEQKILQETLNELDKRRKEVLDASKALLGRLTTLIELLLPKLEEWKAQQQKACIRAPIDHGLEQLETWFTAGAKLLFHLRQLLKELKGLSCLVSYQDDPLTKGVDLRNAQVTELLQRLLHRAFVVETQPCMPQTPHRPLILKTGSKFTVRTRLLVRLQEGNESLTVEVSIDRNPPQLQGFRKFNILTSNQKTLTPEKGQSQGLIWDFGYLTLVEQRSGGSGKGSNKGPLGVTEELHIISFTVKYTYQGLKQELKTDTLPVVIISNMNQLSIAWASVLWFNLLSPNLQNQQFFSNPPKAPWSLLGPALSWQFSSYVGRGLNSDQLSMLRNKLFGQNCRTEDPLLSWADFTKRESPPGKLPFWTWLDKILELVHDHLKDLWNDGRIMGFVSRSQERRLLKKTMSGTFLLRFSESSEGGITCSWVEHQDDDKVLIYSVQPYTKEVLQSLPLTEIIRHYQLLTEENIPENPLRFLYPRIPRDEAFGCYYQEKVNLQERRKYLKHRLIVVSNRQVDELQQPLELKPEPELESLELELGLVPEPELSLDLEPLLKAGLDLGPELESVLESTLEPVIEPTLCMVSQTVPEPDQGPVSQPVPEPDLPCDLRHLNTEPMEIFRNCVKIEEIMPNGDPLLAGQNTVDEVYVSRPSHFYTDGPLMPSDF
Protocol: as §1, §2

STAT1 = target: T4, STAT1 (Homo sapiens, UniProt P42224); assay: Cytokine-induced STAT1 phosphorylation in SJSA cells, Western blot; format: cell-based; settings: induced by IFN-γ, IFN-α, or IL-4
T4 construct: endogenous in cells; host or cells: SJSA
T4 sequence (P42224 whole entry): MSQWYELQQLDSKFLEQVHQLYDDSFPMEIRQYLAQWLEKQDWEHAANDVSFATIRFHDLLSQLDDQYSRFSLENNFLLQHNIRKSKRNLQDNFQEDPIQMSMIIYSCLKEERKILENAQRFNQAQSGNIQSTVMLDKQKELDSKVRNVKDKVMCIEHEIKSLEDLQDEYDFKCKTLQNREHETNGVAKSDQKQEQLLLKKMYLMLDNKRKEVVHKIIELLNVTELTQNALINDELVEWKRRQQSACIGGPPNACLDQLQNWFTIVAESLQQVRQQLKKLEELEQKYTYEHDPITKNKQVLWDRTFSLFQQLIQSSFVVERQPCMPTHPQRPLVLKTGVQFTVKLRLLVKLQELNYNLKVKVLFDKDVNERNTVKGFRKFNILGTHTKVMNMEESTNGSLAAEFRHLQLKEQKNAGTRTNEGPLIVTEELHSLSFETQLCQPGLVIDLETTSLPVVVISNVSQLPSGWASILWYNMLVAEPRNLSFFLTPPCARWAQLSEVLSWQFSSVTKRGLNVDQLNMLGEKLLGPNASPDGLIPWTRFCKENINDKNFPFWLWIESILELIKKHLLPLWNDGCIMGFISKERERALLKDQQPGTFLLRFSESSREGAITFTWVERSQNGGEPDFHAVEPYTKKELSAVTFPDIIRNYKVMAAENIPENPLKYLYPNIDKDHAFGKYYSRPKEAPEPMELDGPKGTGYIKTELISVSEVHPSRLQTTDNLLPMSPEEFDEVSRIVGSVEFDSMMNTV
Protocol: as §1, §2

T1 sequence (Q9H4B4 whole entry): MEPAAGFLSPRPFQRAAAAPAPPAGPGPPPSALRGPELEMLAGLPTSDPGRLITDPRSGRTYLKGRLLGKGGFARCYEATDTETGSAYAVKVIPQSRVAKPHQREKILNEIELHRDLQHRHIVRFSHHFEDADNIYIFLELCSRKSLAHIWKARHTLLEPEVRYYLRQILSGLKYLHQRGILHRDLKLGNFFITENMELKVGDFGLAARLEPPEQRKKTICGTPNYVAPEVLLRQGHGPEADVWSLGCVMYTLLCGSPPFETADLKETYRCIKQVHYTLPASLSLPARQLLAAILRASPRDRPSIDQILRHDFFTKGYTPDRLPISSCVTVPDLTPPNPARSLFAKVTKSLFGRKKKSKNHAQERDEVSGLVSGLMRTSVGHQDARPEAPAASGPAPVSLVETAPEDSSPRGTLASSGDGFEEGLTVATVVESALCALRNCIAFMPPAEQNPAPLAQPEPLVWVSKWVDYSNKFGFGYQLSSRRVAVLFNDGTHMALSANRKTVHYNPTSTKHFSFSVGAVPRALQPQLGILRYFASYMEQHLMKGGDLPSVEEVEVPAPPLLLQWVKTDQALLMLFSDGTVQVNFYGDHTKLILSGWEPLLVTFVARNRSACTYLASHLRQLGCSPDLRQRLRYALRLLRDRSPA

Structure (SMILES): NS(=O)(=O)c1cccc2c1C(=O)C=C(Nc1cccnc1)C2=O [LY5, 5,8-dioxo-6-(pyridin-3-ylamino)-5,8-dihydronaphthalene-1-sulfonamide]
- binding to PLK3 [1]: binding
- basal STAT3 phosphorylation at Tyr705 (STAT3 [2]): inhibited basal STAT3 phosphorylation
- exposure time for effective inhibition of STAT3 phosphorylation (STAT3 [3]; MG 63.3, 1 μM LY5): 0.5 h
- concentration that decreased STAT3 phosphorylation (STAT3 [3]; MG63.3, 2 hrs treatment): 1 µM
- tumor burden in PuMA (K7M2 cells): reduction
- phosphorylation of STAT2 (STAT2): did not inhibit
- phosphorylation of STAT1 (STAT1): did not inhibit
